Data on 12 molecules can be found in PubChem BioAssay (NCI).

By TGI is commonly meant the concentration giving total growth inhibition.

Holding throughout (assay): DTP human tumour cell line panel, 48 h
Test [1] has as its system SR leukemia.
The subject of test [2] is SW-620 colon.
Test [3] deals with SK-OV-3 ovarian.
The subject of test [4] is HT29 colon.
Test [5] concerns UACC-62 melanoma.
Test [6] deals with SK-MEL-2 melanoma.
Test [7] deals with EKVX NSCLC.
In test [8] the test system is KM12 colon.
For test [9], the system named is HOP-62 NSCLC.
Test [10] deals with SNB-19 CNS.
Test [11] deals with SN12C renal.
For test [12], the system named is HS 578T breast.
Test [13] deals with MDA-N.
For test [14], the system named is A498 renal.
Test [15] deals with HCT-116 colon.
Test [16] deals with RXF 393 renal.
Test [17] deals with LOX IMVI melanoma.
Test [18] deals with NCI-H226 lung.
Test [19] deals with SNB-75 CNS.

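A five-concentration, 48-hour dose response in 96-well plates underlies each endpoint, interpolated linearly between surrounding concentrations. At the TGI there is no net growth.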

Consider `c1ccc(-c2cc(-c3cc(-c4ccccc4)no3)on2)cc1`, for which the TGI in [1] is 31.3 µM; in test [2], greater than 100 µM; in [3] it was 89.9 µM; in test [4], greater than 100 µM; in test [5], greater than 100 µM; in test [6] it was greater than 100 µM. Besides, the TGI in test [7], in [8], in [9], in test [10], in test [11] and in test [12] was greater than 100 µM throughout. Moreover, the TGI in test [13], in test [14], in [15], in test [16], in test [17] and in [18] was greater than 100 µM throughout.

In the case of `CCCCC/C(=N\c1nc[nH]c1C(N)=O)OCC`, the concentration for total growth inhibition (TGI) in test [1], in test [2], in test [3], in [4], in test [5] and in test [6] was greater than 100 µM in each case. Further, the TGI in test [7], in test [8], in test [9], in test [10], in test [11] and in [12] was greater than 100 µM throughout. Moreover, the TGI in test [13], in test [14], in test [15], in test [16], in test [17] and in [18] was greater than 100 µM in each case.

For the molecule `Cc1cc(-c2ccc(Cl)cc2)c(C#N)c(=S)n1C1OC(CO)C(O)C(O)C1O` (stereo not drawn), the TGI in [1], in [2], in test [3], in test [4], in test [5] and in test [6] was greater than 100 µM in each case. Moreover, the TGI in test [7], in test [8], in [9], in [10], in test [11] and in [12] was greater than 100 µM each time. In addition, the concentration for total growth inhibition (TGI) in [13], in test [14], in test [15], in test [16], in test [17] and in [18] was greater than 100 µM each time. Also, the TGI in test [19] came out at 78.7 µM.

For the molecule `CN(CCNC(=O)c1cc(-c2ccccc2)nc2ccccc12)CCNC(=O)c1cc(-c2ccccc2)nc2ccccc12`, the TGI is 7.63 µM in test [1]; 24.9 µM in [2]; greater than 100 µM in test [3]; 4.74 µM in [4]; 39.5 µM in test [5]; 24.9 µM in [6]. For the same molecule, the TGI in test [7] is greater than 87.8 µM; in test [8], greater than 40.5 µM; in test [9], greater than 100 µM; in [10], greater than 100 µM; in [11], greater than 100 µM; in [12], 99.4 µM. In addition, the TGI in test [13] is 32.2 µM; in test [14], 37.6 µM; in [15] it was greater than 46.4 µM; in test [16], greater than 57.7 µM; in test [17] it was 16 µM; in test [18], 55.5 µM. Besides, the TGI in [19] was found to be 39.9 µM.

Consider `CCOC(=O)c1nc2ccc(C(F)(F)F)cc2nc1Nc1ccc(OC)c(OC)c1`, for which the TGI in test [1], in test [2], in test [3], in test [4], in test [5] and in test [7] was greater than 100 µM in each case. Moreover, the concentration for total growth inhibition (TGI) in test [8] was greater than 100 µM; in test [9], 29 µM; in test [10] it was greater than 100 µM; in test [11], greater than 100 µM; in [12], greater than 100 µM; in [13], greater than 100 µM. For the same molecule, the total growth inhibition concentration (TGI) in [14] was greater than 100 µM; in [15] it was greater than 100 µM; in test [16], greater than 100 µM; in [17] it was greater than 100 µM; in [18], greater than 100 µM; in test [19], 67.4 µM.

On to `Nc1nc(Cl)cc(NCC2(CO)CCC(OCc3ccccc3)C2)n1` (stereo not drawn), for which the TGI in test [1] was 80.2 µM; in test [2], greater than 100 µM; in [3] it was 62.4 µM; in test [4] it was 34 µM; in test [5], greater than 100 µM; in test [6], 77.3 µM. Also, the concentration for total growth inhibition (TGI) in test [7] was 59.4 µM; in [8] it was 94.6 µM; in test [9], greater than 100 µM; in [10], greater than 100 µM; in test [11], 93 µM; in test [12], 43.9 µM. Moreover, the TGI in test [13] was 74.6 µM; in [14] it was 44.4 µM; in test [15] it was greater than 100 µM; in [16], greater than 100 µM; in test [17], 46.4 µM; in test [18], 84.1 µM. In test [19], this molecule returned a concentration for total growth inhibition (TGI) of 53.4 µM.

With `O=C(NO)c1ccc(OCc2ccccc2)cc1`, the total growth inhibition concentration (TGI) in test [1] was 90.9 µM; in test [2] it was greater than 100 µM; in test [3], greater than 100 µM; in test [4], greater than 100 µM; in [5] it was 36.5 µM; in [6], greater than 100 µM. Further, the TGI in [7], in test [8], in test [9], in test [10], in test [11] and in test [12] was greater than 100 µM each time. The TGI in test [13] was greater than 100 µM; in test [14] it was 43.4 µM; in test [15] it was 27.4 µM; in test [16], greater than 100 µM; in test [17], 55.8 µM; in test [18], greater than 100 µM. The molecule further gave a concentration for total growth inhibition (TGI) in [19] greater than 100 µM.

As for `COc1ccc(N2C(=O)CC(c3c[nH]c4ccccc34)C2=O)cc1` (stereo not drawn), the TGI in test [1], in [2], in test [3], in test [4], in test [5] and in [6] was greater than 100 µM in each case. Also, the TGI in test [7], in [9], in test [10], in [11], in [12] and in [13] was greater than 100 µM throughout. Also, the TGI in [14], in test [15], in test [16], in test [17] and in test [18] was greater than 100 µM each time.

As for `N=C(N)c1ccc(-c2ccc(-c3ccc(C(=N)N)cc3)o2)cc1`, the TGI was greater than 100 µM in [1]; greater than 100 µM in test [2]; greater than 100 µM in [3]; greater than 100 µM in [4]; greater than 100 µM in test [5]; 59.2 µM in test [6]. Moreover, the TGI was 91.6 µM in [7]; greater than 100 µM in test [8]; greater than 100 µM in test [9]; greater than 100 µM in test [10]; 57.3 µM in [11]; 56.9 µM in test [12]. For the same molecule, the TGI in test [13], in test [14], in test [15], in test [16], in [18] and in test [19] was greater than 100 µM in each case.

`[O-][n+]1onc2c1-c1nonc1CC2`: the total growth inhibition concentration (TGI) is greater than 100 µM in test [1]; greater than 100 µM in test [2]; greater than 100 µM in test [3]; greater than 100 µM in test [4]; greater than 100 µM in test [5]; 65.2 µM in [6]. Besides, the concentration for total growth inhibition (TGI) in test [7] was 81.6 µM; in [8] it was 81.5 µM; in test [9], 61.2 µM; in [10] it was greater than 100 µM; in [11], greater than 100 µM; in [12] it was 66.8 µM. Also, the concentration for total growth inhibition (TGI) was greater than 100 µM in [13]; 83.6 µM in [14]; 46.2 µM in test [15]; 69.5 µM in test [16]; 79 µM in [17]; 76.3 µM in test [18].

For `Cc1ccc(OCCn2cc(Nc3ccccc3)c(=O)[nH]c2=O)cc1`, the TGI in test [1], in test [2], in test [4], in [5], in [6] and in test [7] was greater than 100 µM each time. The concentration for total growth inhibition (TGI) in test [8], in test [10], in test [11], in test [12], in [13] and in test [14] was greater than 100 µM each time. The total growth inhibition concentration (TGI) in test [15], in [16], in test [17], in test [18] and in test [19] was greater than 100 µM each time.

Regarding `CCOC(=O)C1C(=O)CC(C)(O)C(C(=O)OCC)C1c1ccc(OC)cc1` (stereo not drawn), the total growth inhibition concentration (TGI) in [1], in test [2], in test [4], in test [5], in [6] and in test [7] was greater than 100 µM in each case. The TGI in test [8], in test [9], in [10], in [11], in test [12] and in test [13] was greater than 100 µM throughout. The total growth inhibition concentration (TGI) in [14], in test [15], in [16], in test [17], in test [18] and in test [19] was greater than 100 µM in each case.
